In US5621102A, “Process for preparing enantiomerically pure xanthine derivatives” (Cell Therapeutics, Inc., priority 1995, dated 1997):

Assays:
[1] = test system: adhesion of activated U937 cells to HUVEC; test: adhesion of IL-1α activated U937 cells to non-stimulated HUVEC; type: cell-based, human; conditions: 250 μM pre-treatment of U937 cells
Description: U937 cells were stimulated with various concentrations of IL-1-α with or without the addition of 250 µM CT1501R one hour prior to addition of IL-1-α. Twelve hours later, the U937 cells were stained with BCECF and allowed to adhere to HUVEC. FIG. 22 is the relative BCECF fluorescence (+/-SD) for each of the treatment groups.
(§1) Murine peritoneal exudate cell macrophages (PEC) were isolated by perfusion of mouse peritoneum and plated into 96-well trays at 5×10^5 cells per well. Cells were stimulated with 5 μg/ml Salmonella abortus equi-derived endotoxin CLPS; Sigma Chemical Co., L-1887) or 50 ng/ml IL-1α (Genzyme; Cambridge, Mass.) with or without the addition of CT1501R added to the cultures one hour prior to addition of the stimulus. At various times thereafter, supernatants were removed and levels of either TNF-α or IL-1α were assayed using commercial 96-well microtiter immunoassay kits (Genzyme; TNF; Endogen, Boston, Mass.; IL-1α) according to manufacturer's specifications. […] After addition of […] Hanks Balanced Salt Solution (HBSS), the microtiter plate was then analyzed on a Millipore Cytofiuor fluorescent plate reader (excitation 488 nm; emission 525 nm). […]

[2] = test system: TNF-α release from LPS-activated mouse peritoneal macrophages; test: TNF-α release from LPS stimulated PEC, ELISA; type: cell-based; conditions: Peritoneal macrophage
Description: R. Cells were isolated and treated with or without various concentrations of CT1501R one hour prior to LPS activation ([…]). Twenty four hours later the supernalants were collected assayed for TNF-α by ELISA (+/-SD).
Murine peritoneal exudate cell macrophages (PEC) were isolated by perfusion of mouse peritoneum and plated into 96-well trays at 5×10^5 cells per well. […] At various times thereafter, supernatants were removed and levels of either TNF-α or IL-1α were assayed using commercial 96-well microtiter immunoassay kits (Genzyme; TNF; Endogen, Boston, Mass.; IL-1α) according to manufacturer's specifications. […] 4000 cells were plated into each well of a 96-well microtiter plate and allowed to incubate for 72 hrs at 37° C. […] Either the HUVEC or U937 cells were stimulated with either LPS, IL-1α or TNF-α for 12 hrs. For the adhesion assay, U937 cells were labeled with the fluorescent viability stain, 2',7'-bis-(2-carboxyethyl)-5-(and-6)-carboxyfluorescein acetoxymethyl ester (BCECF). […] The cells were washed once with full media and 50,000 cells/well added to the HUVEC cultures. The samples were incubated at 37° C. for 30 min, inverted and centrifuged for 10 min at 400×g. After addition of […] Hanks Balanced Salt Solution (HBSS), the microtiter plate was then analyzed on a Millipore Cytofiuor fluorescent plate reader (excitation 488 nm; emission 525 nm). […]

[3] = test system: TNF-α release from IL-1α activated PEC; test: TNF-α release from IL-1α activated PEC, ELISA; type: cell-based; conditions: Mus musculus, 50 ng/ml IL-1α, at the tested time points (24, 48, 72 hrs), read-out: inhibition of induced levels of TNF-α
Description: Cells were isolated and treated with or without CT1501R (250 μM) 1 hour prior to IL-1-α activation. The supernatants were collected at 24, 48 or 72 hrs following activation and assayed for TNF-α by ELISA (+/-SD).
as §1, with “specifications. For the adhesion studies, early passage human umbilical vein endothelial cells (HUVEC) were obtained from commercial suppliers (Clonetics, San Diego, Calif. or Cell Systems, Seattle, Wash.) and cultured in defined, Hepes buffered, serum free medium (Cell Systems, cat 301-180) supplemented with acidic FGF (Cell Systems cat 401-111).” for “specifications.”

## C[C@@H](O)CCCCn1c(=O)c2c(ncn2C)n(C)c1=O [CT1501R, (R)-1-(5-hydroxyhexyl)-3,7-dimethylxanthine]
[1]
  IL-1α mediated increase in adhesion of U937 cells to HUVEC: effectively blocked the IL-1α mediated increase in adhesion to HUVEC to near background levels
[2]; 500 μM, read-out: inhibitory effects, % of the maximal LPS stimulation (1428 pg/ml)
  inhibition at 500 µM: ~40%
[2]; drug 1 hour before LPS (10 μg/ml LPS), read-out: IC50 for TNF-α inhibition (concentration for 50% inhibition)
  IC50: ~30 µM
[3]
  inhibition at 250 µM: 50 to 70%
